# Measurements published in US20090011410A1, “METHOD FOR TAILORING ADMINISTRATION OF DRUGS BY QUANTITATION OF MRNA” (priority 2004, published 2009).
# Legend:
# lymphocyte blastogenesis = conditions: induction of lymphocyte blastogenesis, activity declined at higher doses; cited from earlier work
# IL-2 mRNA = experiment: PHA-P-induced leukocyte IL-2 mRNA expression in heparinized whole blood of healthy adults; assay type: cell-based, human
# Excerpt: Blood was obtained from healthy adults and from patients with psoriasis (4), aplastic anemia (1), nephrotic syndrome (1), and bone marrow transplantation (2). At the time of blood draw, one EDTA tube was sent to clinical laboratory for the measurement of leukocyte counts, and one heparin tube was stored on ice. […] Fifty μL each of blood sample was applied to three different wells of filterplates (triplicate from the beginning), and leukocytes were collected on the membrane by centrifugation at 800×g for 2 min. After washing each well with 300 μL phosphate buffered saline (PBS) once by centrifugation, the lysis buffer described above was applied to each well and incubated at 37° C. for 10 min to release mRNA from trapped leukocytes. The lysate was then transferred to oligo-(dT)-immobilized microplates (GenePlate, RNAture, Irvine, Calif.) by centrifugation at 2000× g for 5 min, and incubated at 4° C. overnight for hybridization. After washing each well with 100 μL lysis buffer 3 times followed by 150 μL wash buffer (10 mM Tris, pH 7.4, 1 mM EDTA, pH 8.0, and 0.5 M NaCl) 3 times, cDNA was synthesized in each well by adding buffer, nucleotides, a cocktail of specific primers, RNasin, and MMLV reverse transcriptase (Promega, Madison, Wis.), and incubated at 37° C. for 2 hours. […]
substance,measurement,setting,value
phytohemagglutinin-P [PHA-P],PHA-P concentration of maximal action,lymphocyte blastogenesis,10 to 20 µg/mL
same,PHA-P concentration from which IL-2 mRNA increased,IL-2 mRNA; heparinized whole blood (FIG. 18),≥ 5 µg/mL
same,PHA-P concentration over which IL-2 mRNA reached a plateau,"IL-2 mRNA; heparinized whole blood (FIG. 18, 19)",over 40 μg/mL
